Laboratory results as given in patent US20130156728A1, “COMPOSITION FOR NEUROLOGICAL OR AUTOIMMUNE DISEASES” (National Institutes of Health (NIH), U.S. Dept. of Health …, priority 2010, published 2013).

Assays:
mice = assay: Characterization of subacute MPTP model (striatal dopamine, splenocyte counts); format: in vivo, mouse
Experimental: To establish a subacute MPTP model, we tested administration of 10 mg/kg/day and 20 mg/kg/day MPTP for consecutive 5 days.
Data are represented as mean±SEM.

chronic MPTP model = assay: Vaccination in chronic MPTP model (striatal DA and DAT); format: in vivo, C57BL/6 mice
[1] = tested on: mouse models of Alzheimer's disease; conditions: without adjuvant; cited from earlier work
[2] = tested on: humans with type 1 diabetes; conditions: injections; cited from earlier work

Molecule: CN1CC=C(c2ccccc2)CC1 [MPTP, 1-Methyl-4-Phenyl-1,2,3,6-Tetrahydro-Pyridine]
- effect on striatal dopamine levels (mice; 10 mg/kg/day MPTP for 5 days, four days after the last treatment): no obvious effect
- decrease of striatal dopamine level compared to PBS treated mice (mice; 20 mg/kg/day MPTP for 5 days, four days after the last treatment): 70%
- effect on splenocyte counts (immunotoxicity) (mice; subacute MPTP, 10 and 20 mg/kg/day for 5 days): did not affect

Molecule: glatiramer acetate [Copaxone (without adjuvant)]
- protection of striatal dopamine (DA) and dopamine transporter (DAT) (chronic MPTP model): no protective effect
- effect in mouse models of Alzheimer's disease [1]: beneficial

Molecule: GAD65: isoform of glutamic acid decarboxylase, 65 kDa
- preservation of some insulin production [2]: 30 months
